Measured values: ChEMBL document CHEMBL5154710, “Discovery of small molecules interacting at lactate dehydrogenases tetrameric interface using a biophysical screening cascade” (Eur J Med Chem, 2022)
pIC50, pKd: −log10 of the molar value.

What was measured:
[1] = organism: Homo sapiens; assay: Destabilization of human LDH-1expressed in Escherichia coli assessed as change in melting temperature at 1 mM heated for 3 mins by NanoDSF assay
[2] = Stabilization of Red-dye-NHS fluorescent-labeled human LDH-Htr expressed in Escherichia coli assessed as dissociation constant by MST assay
[3] = Destabilization of Red-dye-NHS fluorescent-labeled human LDH-5 expressed in Escherichia coli assessed as dissociation constant by MST assay
[4] = Destabilization of Red-dye-NHS fluorescent-labeled human LDH-1 expressed in Escherichia coli assessed as dissociation constant by MST assay
[5] = organism: Homo sapiens; assay: Destabilization of human LDH-5 expressed in Escherichia coli assessed as change in melting temperature at 1 mM heated for 3 mins by NanoDSF assay
[6] = organism: Homo sapiens; assay: Stabilization of human LDH-Htr expressed in Escherichia coli assessed as change in melting temperature at 1 mM heated for 3 mins by NanoDSF assay
[7] = organism: Homo sapiens; assay: Displacement of macro-cycle 7 from human LDH-Htr expressed in Escherichia coli assessed as decay in saturation transfer at 100 uM by saturation transfer difference-1H NMR analysis
[8] = Inhibition of LDH-5 (unknown origin) assessed as denaturation of LDH-5 using NADH and pyruvate as substrate by spectrophotometric analysis; design: species or system Homo sapiens

| Compound | ΔTm [1] [°C] | pKd [2] | pKd [3] | pKd [4] | ΔTm [5] [°C] | ΔTm [6] [°C] | Activity [7] [%] | pIC50 [8] |
| --- | --- | --- | --- | --- | --- | --- | --- | --- |
| O=C(O)c1cc(-c2ccc(F)cc2F)ccc1O [DIFLUNISAL] | 0.1 | 3.00 | 3.46 | 3.94 | -2.1 | 3.1 |  |  |
| CNCCCC12CCC(c3ccccc31)c1ccccc12 | -1.4 |  |  |  | -2.7 | 4.6 |  |  |
| Cc1ccc(/C(=C\CN2CCCC2)c2ccccn2)cc1 [TRIPROLIDINE] |  |  |  |  |  |  | 40 | 2.12 |
| Nc1nc2ccccc2n1Cc1ccc(F)cc1 | 0.4 | 3.74 | 3.49 | 4.32 | -2.6 | 0.8 |  |  |
| O=C(O)c1ccccc1Nc1cccc(C(F)(F)F)c1 [FLUFENAMIC ACID] | 0.4 | 3.05 |  | 2.77 | -1.7 | 1.9 |  |  |
